The text below walks through data of paper PMC5412285, “Characterization of Active Anthocyanin Degradation in the Petals of Rosa chinensis and Brunfelsia calycina Reveals the Effect of Gallated Catechins on Pigment Maintenance” (International Journal of Molecular Sciences, 2017).

In the assay the target is T1, Brunfelsia calycina POD (purified 40-kDa anthocyanin degradation-related peroxidase; BcPrx01 suggested).
T1 construct: native POD purified from petals, close to 40 kDa
Description: guaiacol/H2O2 peroxidase activity assay with purified POD, absorbance at […] nm. It counts as biochemical, Brunfelsia pauciflora var. calycina (Brunfelsia calycina).

With `O=C(O[C@@H]1Cc2c(O)cc(O)cc2O[C@@H]1c1ccc(O)c(O)c1)c1cc(O)c(O)c(O)c1` [ECG, epicatechin-3-gallate], the IC50 (in general, the concentration that gives 50% inhibition) worked out at 21.5 µM. Then `O=C(O[C@@H]1Cc2c(O)cc(O)cc2O[C@H]1c1cc(O)c(O)c(O)c1)c1cc(O)c(O)c(O)c1` [GCG, gallocatechin-3-gallate], with 29.7 µM.
